Assay results from the NIST ThermoML archive (doi:10.1021/je100290a).

Legend:
[1] = 101 kPa, Liquid
[2] = xn = mol fraction of the nth substance listed; details: 101 kPa, Liquid

OCCO [1,2-ethanediol]
[1]
Details	mass density [kg/m3]	viscosity [mPa·s]
298.15 K	–	16.8
303.15 K	1105.8	13.4
308.15 K	–	11.33

OCCO [1,2-ethanediol] + NCCN
[2], x2 = 0
Details	mass density [kg/m3]	viscosity [mPa·s]
298.15 K	–	16.8
303.15 K	1105.8	13.4
308.15 K	–	11.33

NCCN [ethane-1,2-diamine]
[1]
Details	mass density [kg/m3]	viscosity [mPa·s]
298.15 K	894.5	1.276
303.15 K	890.8	1.211
308.15 K	885.6	1.107

NCCN [ethane-1,2-diamine] + OCCO
[2]
Details	mass density, 298.15 K [kg/m3]	mass density, 303.15 K [kg/m3]	mass density, 308.15 K [kg/m3]	viscosity, 298.15 K [mPa·s]	viscosity, 303.15 K [mPa·s]	viscosity, 308.15 K [mPa·s]
x1 = 0.1027	1096.6	1089.8	1084.4	22.28	17.6	14.05
x1 = 0.1541	1086.6	1080.9	1073.8	25.54	20.56	16.93
x1 = 0.2052	1078.4	1072.4	1062.4	28.37	22.44	18.21
x1 = 0.2561	1068.5	1062.2	1053.8	30.73	23.15	19.28
x1 = 0.3066	1061.4	1053.5	1042.9	31.46	23.66	19.2
x1 = 0.3568	1051	1042.8	1033.8	30.7	22.85	18.5
x1 = 0.4078	1040.4	1034.8	1026.6	28.32	21.31	17
x1 = 0.508	1018.5	1013.9	1007.2	20.17	15.18	11.89
x1 = 0.5579	1006.6	1000.7	994.7	16.06	12.27	8.772
x1 = 0.6065	995.4	988.3	981.8	12.51	9.748	6.254
x1 = 0.6573	983.1	976.2	968.7	9.028	7.157	4.674
x1 = 0.7071	970.1	964.5	956.1	6.882	5.681	4.008
x1 = 0.756	957.3	951.7	944.4	5.154	4.177	3.547
x1 = 0.8051	946.2	938.8	931.7	3.787	3.154	2.683
x1 = 0.8542	933.4	924.9	917.5	3.199	2.552	2.128
x1 = 0.9003	919.1	913.4	907.2	2.273	1.92	1.713
x1 = 0.9438	908.8	903.4	897.5	1.8	1.561	1.422
x1 = 1	894.5	890.8	885.6	1.276	1.211	1.107
